Assay results published in US11999727B2 (Tango Therapeutics, Inc., priority 2020, dated 2024).
Counter-ions that a name gives are not always drawn. Like-named read-outs stand apart in the source and are kept apart here.

Assays:
[1] = system: HAP1 MTAP-intact cell line; test: SDMA in-cell western assay, HAP1 MTAP-intact; assay type: cell-based; conditions: Homo sapiens
Source text: (§1) Table 1 also indicates IC50 values in an MTAP-isogenic cell line pair for exemplary compounds in an SDMA in-cell western assay (columns 7-8). HAP1 MTAP-intact is a cell line in which endogenous levels of MTAP are expressed, and HAP1 MTAP-deleted is an MTAP-null cell line.

[2] = system: HAP1 MTAP-deleted cell line; test: SDMA in-cell western assay, HAP1 MTAP-deleted; assay type: cell-based; conditions: for IC50: Homo sapiens; for MTAP intact/deleted ratio: IC50 ratio HAP1 MTAP-intact / HAP1 MTAP-deleted, SDMA in-cell western
Source text: as §1

[3] = system: HAP1 MTAP-deleted cell line; test: Viability assay, MTAP-deleted cell line; assay type: cell-based; conditions: Homo sapiens
Source text: Table 1 additionally indicates IC50 values in a viability assay for the MTAP-deleted cell line (column 10), indicating the effect of treatment with compound on cell survival.

PRMT5 [4] = target: T1, PRMT5 (Homo sapiens, UniProt O14744); test: PRMT5 biochemical IC50 assay with SAM as cofactor; conditions: PRMT5, SAM as cofactor; read-out: SAM IC50
T1 construct: purchased Viva (custom protein)
T1 sequence (O14744 whole entry): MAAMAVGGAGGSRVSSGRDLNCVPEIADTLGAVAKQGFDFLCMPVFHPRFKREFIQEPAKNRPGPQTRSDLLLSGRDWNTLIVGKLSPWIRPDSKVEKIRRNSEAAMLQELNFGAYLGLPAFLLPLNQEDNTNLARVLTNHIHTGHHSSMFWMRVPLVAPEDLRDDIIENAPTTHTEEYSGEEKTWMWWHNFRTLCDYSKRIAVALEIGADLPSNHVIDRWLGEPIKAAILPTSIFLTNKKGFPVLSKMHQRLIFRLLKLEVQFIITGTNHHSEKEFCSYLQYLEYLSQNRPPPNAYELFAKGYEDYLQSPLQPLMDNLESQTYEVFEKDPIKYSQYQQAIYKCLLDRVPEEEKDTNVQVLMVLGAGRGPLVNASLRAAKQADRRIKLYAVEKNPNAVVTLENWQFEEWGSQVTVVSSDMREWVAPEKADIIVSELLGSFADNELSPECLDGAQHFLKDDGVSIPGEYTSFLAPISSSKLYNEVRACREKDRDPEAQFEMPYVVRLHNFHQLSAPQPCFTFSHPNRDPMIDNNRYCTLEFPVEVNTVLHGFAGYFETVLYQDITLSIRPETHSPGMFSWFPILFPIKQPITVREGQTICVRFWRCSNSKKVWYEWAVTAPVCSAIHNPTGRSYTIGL
T1 sequence (Q9BQA1 whole entry partner): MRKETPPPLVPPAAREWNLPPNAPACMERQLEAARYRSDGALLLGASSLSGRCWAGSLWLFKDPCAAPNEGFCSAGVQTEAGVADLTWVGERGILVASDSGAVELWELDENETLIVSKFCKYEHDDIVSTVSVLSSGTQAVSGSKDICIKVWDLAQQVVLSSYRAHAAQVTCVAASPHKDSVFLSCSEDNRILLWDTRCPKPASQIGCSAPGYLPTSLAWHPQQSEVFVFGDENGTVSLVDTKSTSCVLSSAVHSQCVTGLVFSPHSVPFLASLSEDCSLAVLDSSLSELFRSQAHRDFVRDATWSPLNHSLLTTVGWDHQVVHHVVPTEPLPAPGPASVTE

PRMT5 [5] = target: T1, PRMT5; test: PRMT5 biochemical IC50 assay with no cofactor; conditions: PRMT5, no cofactor
Source text: Table 1 indicates IC50 values (μM) against PRMT5 for exemplary compounds in the presence of SAM as cofactor, with no cofactor, and with MTA as cofactor, respectively (columns 4-6). […] Ki values can be calculated from the IC50 values as described in the Examples section. As detailed in the Examples section, for the assay performed in the presence of SAM, IC50=Ki×1.5 (Ki=IC50/1.5).

PRMT5 [6] = target: T1, PRMT5; test: PRMT5 biochemical IC50 assay with MTA as cofactor; conditions: PRMT5, MTA as cofactor; read-out: MTA IC50
[7] = HAP1, read-out: MTAP HAP1 intact IC50
[8] = HAP1, read-out: HAP1 MTAP deleted IC50
[9] = HAP1, read-out: HAP1 MTAP deleted viability
[10] = HAP1, SDMA in-cell western, HAP1 MTAP-intact, read-out: MTAP HAP1 intact IC50
[11] = HAP1, SDMA in-cell western, HAP1 MTAP-deleted, read-out: HAP 1 MTAP deleted IC50
[12] = HAP1, viability IC50, MTAP-deleted cell line, read-out: HAP1 MTAP deleted viability
[13] = HAP1, viability assay, MTAP-deleted cell line, read-out: HAP1 MTAP deleted viability

Compound | IC50 [1, 7] [µM] | IC50 [2, 8] [µM] | IC50 [3, 9] [µM] | also measured
Cc1cc(NC(=O)C(=O)N2CC(C)CCC2c2ccccc2)cnc1N (mixture of isomers) [Compound 27, N-(6-Amino-5-methyl-3-pyridyl)-2-(5-methyl-2-phenyl-1-piperidyl)-2-oxo-acetamide] | > 1 | < 0.1 | 1 to 10 | 
Cc1cncc(NC(=O)C(=O)N2[C@H](c3ccccc3)CC[C@@H](C)[C@@H]2C)c1 (racemic) [Compound 23, rac-2-[(2S,3R,6S)-2,3-dimethyl-6-phenyl-1-piperidyl]-N-(5-methyl-3-pyridyl)-2-oxo-acetamide] | > 1 | > 1 | > 10 | 
Cc1cc(NC(=O)C(=O)N2C[C@H](C)CC[C@H]2c2ccc(O)cc2)cnc1N (racemic) [Compound 164, rac-N-(6-amino-5-methylpyridin-3-yl)-2-((2R,5S)-2-(4-hydroxyphenyl)-5-methylpiperidin-1-yl)-2-oxoacetamide] | 0.1 to 1 | < 0.1 | < 1 | 
Cc1cc(NC(=O)C(=O)N2C[C@H](C)CC[C@H]2c2ccc3c(c2)CC(=O)N3)cnc1N (racemic) [Compound 373, N-(6-amino-5-methyl-3-pyridyl)-2-[5-methyl-2-(2-oxoindolin-5-yl)-1-piperidyl]-2-oxo-acetamide] | 0.1 to 1 | < 0.1 | < 1 | 
Cc1cc(NC(=O)C(=O)N2C[C@H](C)CC[C@@H]2c2ccc(-c3ccn[nH]3)s2)cnc1N (racemic) [Compound 577, N-(6-amino-5-methyl-3-pyridyl)-2-[(2R,5R)-5-methyl-2-[5-(1H-pyrazol-5-yl)-2-thienyl]-1-piperidyl]-2-oxo-acetamide] |  |  |  | IC50 [1, 10]: > 1 µM; IC50 [2, 11]: > 1 µM; MTAP intact/deleted ratio [2]: B (an IC50 ratio greater than or equal to 3 fold but lower than 10 fold)
Cc1cc(NC(=O)C(=O)N2C[C@H](C)CC[C@@H]2c2ccc3c(c2)CCC(=O)N3)cnc1N (racemic) [Compound 583, N-(6-Amino-5-methyl-3-pyridyl)-2-[(2R,5R)-5-methyl-2-(2-oxo-3,4-dihydro-1H-quinolin-6-yl)-1-piperidyl]-2-oxo-acetamide] | < 0.1 | < 0.1 | < 1 | 
Cc1cc(NC(=O)C(=O)N2C[C@H](C)CC[C@H]2c2ccc3cnccc3c2)cnc1N (racemic) [Compound 758, N-(6-Amino-5-methyl-3-pyridyl)-2-[2-(6-isoquinolyl)-5-methyl-1-piperidyl]-2-oxo-acetamide] | 0.1 to 1 | < 0.1 | < 1 | 
[2H][C@]1(c2ccc(F)cc2)CC[C@H](C)CN1C(=O)C(=O)Nc1cnc(N)c(C)c1 (racemic) [Compound 1009, N-(6-amino-5-methylpyridin-3-yl)-2-(2-(4-fluorophenyl)-5-methylpiperidin-1-yl-2-d)-2-oxoacetamide hydrochloride] | 0.1 to 1 | < 0.1 | 1 to 10 | 
Cc1cc(NC(=O)C(=O)N2C[C@H](C)CC[C@H]2c2ccc3sc(CN(C)C)nc3c2)cnc1N (racemic) [Compound 1106, N-(6-amino-5-methylpyridin-3-yl)-2-(2-(2-((dimethylamino)methyl)benzo[d]thiazol-5-yl)-5-methylpiperidin-1-yl)-2-oxoacetamide] | < 0.1 | < 0.1 | < 1 | 
C[C@H]1CC[C@H](c2ccc(N)cn2)N(C(=O)C(=O)Nc2cncc(C(N)=O)c2)C1 (relative stereo) [Compound 594, 5-[[2-[(2R,5S)-2-(5-amino-2-pyridyl)-5-methyl-1-piperidyl]-2-oxo-acetyl]amino]pyridine-3-carboxamide] |  |  |  | IC50 [1, 10]: > 1 µM; IC50 [2, 11]: > 1 µM; MTAP intact/deleted ratio [2]: B (an IC50 ratio greater than or equal to 3 fold but lower than 10 fold); IC50 [3, 12]: > 10 µM
COc1ncc(NC(=O)C(=O)N2C[C@H](C)CC[C@H]2c2ccc3sccc3c2)cc1C(N)=O (relative stereo) [Compound 633, 5-[[2-[(2S,5R)-2-(benzothiophen-5-yl)-5-methyl-1-piperidyl]-2-oxo-acetyl]amino]-2-methoxy-pyridine-3-carboxamide] |  |  |  | IC50 [1, 10]: > 1 µM; IC50 [2, 11]: > 1 µM; MTAP intact/deleted ratio [2]: C (an IC50 ratio of less than 3 fold); IC50 [3, 12]: > 10 µM
Cc1cc([C@H]2CC[C@H](C)CN2C(=O)C(=O)Nc2cncc(C(N)=O)c2)cc2cn[nH]c12 (relative stereo) [Compound 638, 5-[[2-[(2R,5S)-5-methyl-2-(7-methyl-1H-indazol-5-yl)-1-piperidyl]-2-oxo-acetyl]amino]pyridine-3-carboxamide] |  |  |  | IC50 [1, 10]: > 1 µM; IC50 [2, 11]: < 0.1 µM; MTAP intact/deleted ratio [2]: A (an IC50 ratio greater than or equal to 10 fold); IC50 [3, 12]: 1 to 10 µM
Cc1cncc(NC(=O)C(=O)N2C[C@@H](C)CC[C@@H]2c2ccccc2)c1 (single isomer, unassigned) [Compound 2] | > 1 | > 1 | > 10 | 
Cc1cncc(NC(=O)C(=O)N2[C@@H](c3ccccc3)CC[C@H](C)[C@H]2C)c1 (single isomer, unassigned) [Compound 32] | > 1 | > 1 | > 10 | 
Cc1cc(NC(=O)C(=O)N2C[C@@H](C)CC[C@@H]2c2ccccc2)cnc1N (single isomer, unassigned) [Compound 33] | 0.1 to 1 | < 0.1 | 1 to 10 | 
Cc1cncc(NC(=O)C(=O)N2[C@@H](c3ccccc3)CC[C@@H](C)[C@H]2C)c1 (single isomer, unassigned) [Compound 35] | > 1 | > 1 | > 10 | 
Cc1cc(NC(=O)C(=O)N2C[C@H](C)CC[C@@H]2c2ccccc2)cnc1N (single isomer, unassigned) [Compound 37] | > 1 | 0.1 to 1 | 1 to 10 | 
C[C@@H]1CC[C@H](c2ccccc2)N(C(=O)C(=O)Nc2cncc(C(N)=O)c2)C1 (single isomer, unassigned) [Compound 75] | > 1 | > 1 |  | 
C[C@@H]1CC[C@@H](c2ccc3c(c2)CC(=O)N3)N(C(=O)C(=O)Nc2cncc(C(N)=O)c2)C1 (single isomer, unassigned) [Compound 325] | > 1 | > 1 |  | 
Cc1cc(NC(=O)C(=O)N2C[C@@H](C)CC[C@@H]2c2ccncc2)cnc1N (single isomer, unassigned) [Compound 609] |  |  |  | IC50 (PRMT5 [4]): > 0.5 µM; IC50 (PRMT5 [5]; read-out: No Cofactor/rel IC50): > 0.5 µM; IC50 (PRMT5 [6]): > 0.5 µM; IC50 [2, 11]: > 1 µM; MTAP intact/deleted ratio [2]: C (an IC50 ratio of less than 3 fold); IC50 [3, 12]: > 10 µM
C[C@H]1CC[C@H](c2ccc(NCC(=O)N(C)C)cc2)N(C(=O)C(=O)Nc2cncc(C(N)=O)c2)C1 (single isomer, unassigned) [Compound 1082] |  |  |  | IC50 (PRMT5 [4]): > 0.5 µM; IC50 (PRMT5 [5]; read-out: No Cofactor/rel IC50): > 0.5 µM; IC50 (PRMT5 [6]): > 0.5 µM; IC50 [3, 13]: > 10 µM
C[C@@H]1CC[C@@H](c2cccc(Cl)c2)N(C(=O)C(=O)Nc2cnc(N)c(C3CC3)c2)C1 (single isomer, unassigned) [Compound 1169] |  |  |  | IC50 (PRMT5 [4]): > 0.5 µM; IC50 (PRMT5 [5]; read-out: No Cofactor/rel IC50): > 0.5 µM; IC50 (PRMT5 [6]): 0.05 to 0.5 µM; IC50 [3, 13]: > 10 µM
COc1ncc(NC(=O)C(=O)N2C[C@H](C)CC[C@H]2c2ccc3sc(CCN(C)C)nc3c2)cc1C(N)=O (single isomer, unassigned) [Compound 1197] |  |  |  | IC50 (PRMT5 [4]): > 0.5 µM; IC50 (PRMT5 [5]; read-out: No Cofactor/rel IC50): > 0.5 µM; IC50 (PRMT5 [6]): > 0.5 µM; IC50 [3, 13]: 1 to 10 µM
Cc1cncc(NC(=O)C(=O)N2CC(C)CCC2c2ccccc2)c1 (stereo not drawn) [Compound 1, 2-(5-methyl-2-phenylpiperidin-1-yl)-N-(5-methylpyridin-3-yl)-2-oxoacetamide] | > 1 | > 1 |  | 
NC(=O)c1cncc(NC(=O)C(=O)N2CCCCC2C2CCCC2O)c1 (stereo not drawn) [Compound 169, 5-{2-[2-(2-Hydroxycyclopentyl)piperidin-1-yl]-2-oxoacetamido}pyridine-3-carboxamide] |  |  |  | IC50 (PRMT5 [4]): 0.05 to 0.5 µM; IC50 (PRMT5 [5]; read-out: No Cofactor/ rel IC50): > 0.5 µM; IC50 (PRMT5 [6]): 0.05 to 0.5 µM; IC50 [3, 13]: > 10 µM
NC(=O)c1cncc(NC(=O)C(=O)N2CCC3C(CCCN3Cc3ccccc3)C2)c1 (stereo not drawn) [Compound 412, 5-[2-(1-Benzyl-decahydro-1,6-naphthyridin-6-yl)-2-oxoacetamido]pyridine-3-carboxamide] |  |  |  | IC50 (PRMT5 [4]): 0.05 to 0.5 µM; IC50 (PRMT5 [5]; read-out: No Cofactor/rel IC50): > 0.5 µM; IC50 (PRMT5 [6]): 0.05 to 0.5 µM; IC50 [3, 13]: > 10 µM
NC(=O)CC1CCC2CN(C(=O)C(=O)Nc3cncc(C(N)=O)c3)CCC2C1 (stereo not drawn) [Compound 420, 5-{2-[6-(Carbamoylmethyl)-decahydroisoquinolin-2-yl]-2-oxoacetamido}pyridine-3-carboxamide] |  |  |  | IC50 (PRMT5 [4]): > 0.5 µM; IC50 (PRMT5 [5]; read-out: No Cofactor/rel IC50): > 0.5 µM; IC50 (PRMT5 [6]): 0.05 to 0.5 µM; IC50 [3, 13]: > 10 µM
